From PMC9738107, “Targeting of the ELR+CXCL/CXCR1/2 Pathway Is a Relevant Strategy for the Treatment of Paediatric Medulloblastomas” (Cells, 2022)

How the values were obtained:
Type in all cases: cell-based, human
[1] = tested on: radiation resistant Daoy cells (DR1, DR2); assay: Clonogenic assay
Method: (§1) Figure 8 C29 is efficient on radioresistant MB cell lines. (A) Cell death after 48 h of treatment with control (DMSO, CT) or C29 1, 2.5, or 5 µM on radiation-resistant cells (RR) and normal cells (N), n = 3. Statistics were performed using the one-way method ANOVA. * p < 0.05, ** p < 0.01, *** p < 0.001. For this figure, DR1 = D1, DR2 = D2, HR1 = H1, HR2 = H2, and C8D1A = C8. (B) Proliferation of DR1/DR2 (A) and HR1/HR2 (B) radio-resistant cells after 1 µM C29 treatment or control (DMSO), n = 3. (C) Clonogenic assay on DR1, DR2 (n = 3) and HR1, HR2 (n = 3) cells after treatment with control (DMSO) or C29 (1 µM or 2.5 µM). (D) Cell migration through the Boyden chamber of DR1 and DR2 cells specifically attracted by 200 ng/mL CXCL8. Cells were treated with control (DMSO) or C29 (1 and 2.5 µM). Results are expressed as percentage of control (n = 3). Scale = 1000 μm. Statistics were performed using Student t-test for 2 comparisons only or ANOVA test for multiple comparisons. * p < 0.05, ** p < 0.01, *** p < 0.001. […]
(§2) each month by using PlasmoTest Kit (#10L07‐MM, InvivoGen, Toulouse, France). Daoy and ONS‐76 belong to the Shh genetic subgroup, D341‐Med and HD‐MB03 to group 3. […]
(§3) 150 Daoy/DR1/DR2/ ONS ‐ 76 and 300 HD ‐ MB03/HR1/HR2 cells were seeded in trip‐ licate in 6‐well plates in the presence or absence of treatment (1 or 2∙5μM […] or DMSO as control). On day 9 (Daoy/ONS‐76) and day 11 (HD ‐MB03), cells were fixed in ice‐cold absolute ethanol (Sigma) for 20 min, washed with PBS and then stained with Giemsa 50% for 30 min. The number of clones was quantified using ImageJ software. We only considered clones containing more than 50 cells. […]
Violet. […]
(§4) 5000 cells were plated in 48 multi‐well plates coated with agarose 0∙8%. After two days, spheroids were mixed with 100μl of matrigel mix (200μl of matrigel (Corning Mat‐ rigel Matrix, Fontenay‐sous‐Bois, France), 100 μl collagen I (8 mg/ml, Corning), 80 μl HEPES 1M and 320μl respective medium) in 12 multi‐well plates. […]

HR2 cells = assay: Clonogenic assay; conditions: HR2, 2.5 µM
Method: as §1, §2, §3
Violet. […]
as §4

[2] = tested on: ERK phosphorylation in HD-MB03 cells; assay: Immunoblotting of p-ERK/p-AKT; conditions: HD-MB03, 1 or 2.5 µM, 2 h
Method: (§5) Figure 5 C29 inhibits signalling pathway that stimulates in cell proliferation and survival. (A–C). Daoy (A), HD-MB03 (B), and ONS-76 (C) cells were treated with C29 (1 or 2.5 μM) for 2 h (A–C) or 24 h (C), n = 3. The expression of p- ERK and p-AKT, relative to ERK and AKT, (respectively) was used to describe the relative activation of the pathways. ARD1 and HSP90 were used as loading controls. Statistics were performed using Student t-test for two comparisons only or ANOVA test for multiple comparisons. * p < 0.05, ** p < 0.01. […]
(§6) Protein extraction and immunoblotting
(§7) Cells were cultured to sub confluency and lysed in 60 mM Tris‐Cl pH 6∙8, 2% SDS, 10% glycerol, 5% β‐mercapto‐ethanol, 0∙01% bromophenol blue).
(§8) Lysates were sonicated for 25 seconds, and protein amount was determined by the Pierce™ BCA Protein Assay Kit assay (Thermo Fisher). Sample proteins were reduced by heating at 95 °C for 5 min. 30 μg of proteins were separated on 10% SDS‐polyacrylamide gels and transferred on PVDF membranes in Tris‐Glycine buffer (25 mM Tris, 192 mM glycine, pH 8∙3) + 20% ethanol (v:v). Membranes were blocked with 3% BSA, at room tem‐ perature for 1 h, then immunoblotted overnight with primary antibodies diluted in 3% BSA, at 4 °C. The following primary antibodies were used: AKT (CST, #9272S), phospho‐ […]
(§9) ARD1 (homemade polyclonal rabbit antibody). Membranes were incubated with HRP‐ conjugated secondary antibodies anti‐rabbit IgG 1/5000e (Promega), at room temperature, for 1h30. After washing, the Advansta WesternBright Quantum HRP substrate (Diagom‐ ics, Blagnac, France) was used as detection reagent.

[3] = tested on: ERK phosphorylation in Daoy cells; assay: Immunoblotting of p-ERK/p-AKT; conditions: 1 or 2.5 µM, 2 h
Method: as §5, §6, §7, §8, §9

[4] = tested on: ERK and AKT phosphorylation in ONS-76 cells; assay: Immunoblotting of p-ERK/p-AKT; conditions: ONS-76, 1 or 2.5 µM, 2 h or 24 h
Method: as §5, §6, §7, §8, §9

Daoy cells = assay: Pseudo-vessel formation on Matrigel
Method: (§10) Figure 6 C29 inhibits the formation of pseudo vessel structures. (A) Formation of pseudo-vessels by Daoy cells, ONS-76, and HD-MB03 cultured on Matrigel and treated with Control (DMSO) or C29 (1 or 2.5 µM); n = 3. (B) Number of meshes (geometric units of the net formed by the cells on the matrigel surface) were counted with ImageJ. Statistics were performed using Student t-test for only 2 comparisons or ANOVA test for multiple comparisons. *** p < 0.001, scale = 500 μm. […]
(§11) Pseudo‐vessels formation assays
(§12) The cells were deprived of serum overnight. They were then seeded (75000 Daoy
(§13) with Matrigel Matrix, hESC‐Qualified (VWR). Plates were then incubated at 37 °C, 5%
(§14) CO2 for 24 hours. Representative images were taken with the Evos XL Core Cell Imaging
(§15) System at low magnification (4X). For each image, we determined the number of meshes
(§16) (number of geometric units of the net formed by the cells seeded on the matrigel surface). […]

HD-MB03 cells = assay: Pseudo-vessel formation on Matrigel; conditions: HD-MB03, 1 µM
Method: as §10, §11, §12, §13, §14, §15, §16

ONS-76 cells = assay: Pseudo-vessel formation on Matrigel
Method: as §10, §11, §12, §13, §14, §15, §16

SMILES: O=C(Nc1cccc(Cl)c1)Nc1nc2ccc([N+](=O)[O-])cc2s1 [C29, 1-(3-chlorophenyl)-3-(6-nitrobenzo[d]thiazol-2-yl) urea]
- Clone formation ([1]; DR1, DR2, 1 µM): effective
- Clone formation ([1]; DR1, DR2, 2.5 µM): completely prevented clone formation
- Clone formation (HR2 cells): significantly reduced clone formation
- ERK phosphorylation [2]: inhibited ERK phosphorylation
- ERK phosphorylation [3]: inhibited ERK phosphorylation
- AKT phosphorylation [4]: inhibited
- ERK phosphorylation [4]: inhibited
- Pseudo-vasculature formation (Daoy cells; 1 µM): inhibited this ability
- Pseudo-vasculature formation (Daoy cells; 2.5 µM): inhibited this ability
- Number of meshes (pseudo-vessels) (HD-MB03 cells): significantly reduced the number of meshes
- Pseudo-vasculature formation (ONS-76 cells; ONS-76, 1 µM): some vascular structures were retained
- Pseudo-vasculature formation (ONS-76 cells; ONS-76, 2.5 µM): completely lost this ability
